Assay results reported in patent US20180042249A1, “METHOD FOR REDUCTION IN MICROBIAL ACTIVITY IN POULTRY PROCESSING” (Zeco, Inc., priority 2014, published 2018).

Tested on: bacterial count on poultry carcasses (chicken samples)
Test: Antimicrobial efficacy of elevated concentration and temperature application of PAA to poultry carcasses (average bacterial count reduction)
Type: cell-based
Protocol: As summarized in Table 1 below, ten chicken samples were treated with an elevated peroxyacetic acid concentration at an elevated temperature for a specified period of time using either an equilibrium peroxyacetic acid intervention solution or a pH modified peroxyacetic acid intervention solution. […] The treated poultry carcasses were measured for the average bacterial count reduction as a result of the elevated peroxyacetic acid concentration and elevated temperature.

## peroxyacetic acid [PAA]
PAA 500 ppm, 72 °F, 10 seconds exposure, pH 7.7 (pH modified PAA solution)
  Average % Reduction (bacterial count): 97.34%
PAA 500 ppm, 72 °F, 10 seconds exposure, pH ~3 (equilibrium PAA solution)
  Average % Reduction (bacterial count): 70.57%
PAA 500 ppm, 125 °F, 7 seconds exposure, pH 7.7 (pH modified PAA solution)
  Average % Reduction (bacterial count): 93.68%
PAA 500 ppm, 125 °F, 7 seconds exposure, pH ~3 (equilibrium PAA solution)
  Average % Reduction (bacterial count): 77.26%
PAA 600 ppm, 125 °F, 7 seconds exposure, pH 7.7 (pH modified PAA solution)
  Average % Reduction (bacterial count): 89.34%
PAA 600 ppm, 125 °F, 7 seconds exposure, pH ~3 (equilibrium PAA solution)
  Average % Reduction (bacterial count): 61.94%
PAA 700 ppm, 125 °F, 7 seconds exposure, pH 7.7 (pH modified PAA solution)
  Average % Reduction (bacterial count): 97.87%
PAA 700 ppm, 125 °F, 7 seconds exposure, pH ~3 (equilibrium PAA solution)
  Average % Reduction (bacterial count): 92.27%
Elevated PAA concentration and temperature, period of time of at least 7 seconds (summary of Table 1)
  bacterial count reduction: ≥ 60%
